The subject of this assay is P388 leukemia ip, CD2F1 mice, survival T/C. As to the kind of experiment: NCI In Vivo Anticancer Drug Screen. Data for tumor model P388 Leukemia (intraperitoneal) in CD2F1 (CDF1) mice. Conditions: endpoint: median survival time, higher = longer survival. The essentials:
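Mice carrying the transplanted tumor received test compound or vehicle. Survival was recorded in each group, and the value is the treated-group measurement divided by that of the vehicle-treated control group.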

Where [1] appears, read: dose: 60.0 mg/kg/injection, schedule: Q01DX005 (ip), vehicle: Klucel (hydroxypropylcellulose) (HPC).
The mark [2] stands for this setting: dose: 120.0 mg/kg/injection, schedule: Q01DX005 (ip), vehicle: Klucel (hydroxypropylcellulose) (HPC).
[3] abbreviates: dose: 240.0 mg/kg/injection, schedule: Q01DX005 (ip), vehicle: Klucel (hydroxypropylcellulose) (HPC).
Setting [4] is: dose: 50.0 mg/kg/injection, schedule: Q01DX005 (ip), vehicle: saline with Tween-80.
Where [5] appears, read: dose: 100.0 mg/kg/injection, schedule: Q01DX005 (ip), vehicle: saline with Tween-80.
The mark [6] stands for this setting: dose: 200.0 mg/kg/injection, schedule: Q01DX005 (ip), vehicle: saline with Tween-80.
Setting [7] is: dose: 50.0 mg/kg/injection, schedule: Q01DX005 (ip), vehicle: Klucel (hydroxypropylcellulose) (HPC).
Where [8] appears, read: dose: 100.0 mg/kg/injection, schedule: Q01DX005 (ip), vehicle: Klucel (hydroxypropylcellulose) (HPC).
Where [9] appears, read: dose: 200.0 mg/kg/injection, schedule: Q01DX005 (ip), vehicle: Klucel (hydroxypropylcellulose) (HPC).
The mark [10] stands for this setting: dose: 50.0 mg/kg/injection, schedule: Q01DX009 (ip), vehicle: Klucel (hydroxypropylcellulose) (HPC).
[11] abbreviates: dose: 100.0 mg/kg/injection, schedule: Q01DX009 (ip), vehicle: Klucel (hydroxypropylcellulose) (HPC).
Where [12] appears, read: dose: 200.0 mg/kg/injection, schedule: Q01DX009 (ip), vehicle: Klucel (hydroxypropylcellulose) (HPC).
Setting [13] is: dose: 25.0 mg/kg/injection, schedule: Q01DX005 (ip), vehicle: Klucel (hydroxypropylcellulose) (HPC).

Here are results for 23 molecules from PubChem BioAssay AID330 (DTP/NCI, 2004).

“And” between values parts separate entries of the source, which are not always exact repeats. Identical values can stand only once. Toxic doses and inconclusive results are not listed.

As to `O=c1[nH]c2cc(Cl)ccc2nc1/C=C(\O)c1ccc([N+](=O)[O-])cc1`, the T/C is 101 % of control under setting [1], 96 % of control under setting [2] and 89 % of control under setting [3].
`CC(=O)CC(=O)Nc1cc(Cl)c(NC(=O)CC(C)=O)cc1Cl`: the T/C runs as follows: (dose: 100.0 mg/kg/injection, schedule: Q04DX003 (ip), vehicle: saline with Tween-80) 100 % of control; (dose: 200.0 mg/kg/injection, schedule: Q04DX003 (ip), vehicle: saline with Tween-80) 104 % of control; (dose: 400.0 mg/kg/injection, schedule: Q04DX003 (ip), vehicle: saline with Tween-80) 95 % of control.
Consider `c1ccc2c(SC3CCC4CC5CC4C3C5)nccc2c1` (stereo not drawn), for which the T/C was 91 % of control (dose: 60.0 mg/kg/injection, schedule: Q01DX005 (ip), vehicle: saline with Tween-80); 94 % of control (dose: 120.0 mg/kg/injection, schedule: Q01DX005 (ip), vehicle: saline with Tween-80); 91 % of control (dose: 240.0 mg/kg/injection, schedule: Q01DX005 (ip), vehicle: saline with Tween-80).
On to `CC1(O)c2ccccc2-c2ccccc2C1(C)O` (stereo not drawn), for which the T/C is, setting by setting: under setting [4], 97 % of control; under setting [5], 100 % of control; under setting [6], 90 % of control.
Take `COc1cc(C=C2C(=O)C=CC2=O)cc(OC)c1O`: the T/C was 102 % of control (dose: 1.25 mg/kg/injection, schedule: Q04DX002 (ip), vehicle: saline with Tween-80); 103 % of control (dose: 2.5 mg/kg/injection, schedule: Q04DX002 (ip), vehicle: saline with Tween-80); 102 % of control (dose: 5.0 mg/kg/injection, schedule: Q04DX002 (ip), vehicle: saline with Tween-80).
Regarding `CC1=CC(=O)OC12CCCC(C)(C)C2` (stereo not drawn), the T/C under setting [4] is 106 % of control, the T/C under setting [5] was 104 % of control and the T/C under setting [6] was 106 % of control.
Turning to `O=C1CSC(c2ccoc2)N1N1C(=O)CSC1c1ccoc1` (stereo not drawn), the T/C was 90 % of control under setting [4], 87 % of control under setting [5] and 90 % of control under setting [6].
On to `O=C1NS(=O)(=O)Oc2ccccc2O1`, for which the T/C was 107 % of control under setting [7], 100 % of control under setting [8] and 95 % of control under setting [9].
On to `N=C(/C(=C/c1ccccc1)c1ccccc1)c1ccccc1`, for which the T/C under setting [10] was 107 % of control, the T/C under setting [11] was 113 % of control and the T/C under setting [12] is 118 % of control.
Turning to `COCCOCCOCCOCCO`, the T/C was 102 % of control under setting [4], 100 % of control under setting [5] and 104 % of control under setting [6].
The matching figures for `CC(=O)c1c(C(=O)O)n([O-])c2ccccc2[n+]1=O`: 97 % of control, 94 % of control and 112 % of control.
Regarding `O=c1[nH]c(=O)n(C2OC(CO)C(O)C2O)cc1F` (stereo not drawn), the T/C is, setting by setting: (dose: 0.62 mg/kg/injection, schedule: Q01DX009 (ip), vehicle: saline) 179 % of control; (dose: 0.79 mg/kg/injection, schedule: Q01DX009 (ip), vehicle: saline) 157 % of control; (dose: 1.0 mg/kg/injection, schedule: Q01DX005 (ip), vehicle: saline) 158 % of control; (dose: 1.57 mg/kg/injection, schedule: Q01DX009 (ip), vehicle: saline) 169 % of control; (dose: 2.0 mg/kg/injection, schedule: Q01DX005 (ip), vehicle: saline) 172 % of control; (dose: 2.5 mg/kg/injection, schedule: Q01DX009 (ip), vehicle: saline) 176 % of control and 205 % of control. The T/C is, setting by setting: (dose: 3.89 mg/kg/injection, schedule: Q04DX003 (ip), vehicle: saline) 157 % of control; (dose: 4.0 mg/kg/injection, schedule: Q01DX005 (ip), vehicle: saline) 185 % of control; (dose: 5.0 mg/kg/injection, schedule: Q01DX009 (ip), vehicle: saline) 189 % of control; (dose: 6.48 mg/kg/injection, schedule: Q04DX002 (ip), vehicle: saline) 150 % of control; (dose: 6.48 mg/kg/injection, schedule: Q04DX003 (ip), vehicle: saline) 159 % of control; (dose: 10.8 mg/kg/injection, schedule: Q04DX002 (ip), vehicle: saline) 160 % of control. The T/C is 175 % of control (dose: 10.8 mg/kg/injection, schedule: Q04DX003 (ip), vehicle: saline) and 186 % of control (dose: 18.0 mg/kg/injection, schedule: Q04DX003 (ip), vehicle: saline).
With `CC(C)=CC[P+](CP(c1ccccc1)c1ccccc1)(c1ccccc1)c1ccccc1`, the T/C (dose: 3.12 mg/kg/injection, schedule: Q01DX005 (ip), vehicle: saline with Tween-80) was 107 % of control; the T/C (dose: 6.25 mg/kg/injection, schedule: Q01DX005 (ip), vehicle: saline with Tween-80) is 105 % of control; the T/C (dose: 12.5 mg/kg/injection, schedule: Q01DX005 (ip), vehicle: saline with Tween-80) is 89 % of control.
For the molecule `CC(=O)O.CC(=O)O.CC[OH+]CC[OH+]CC[OH+]C1CCCC2CCC[N-]C21.[Zn]` (stereo not drawn), the T/C (dose: 6.25 mg/kg/injection, schedule: Q01DX005 (ip), vehicle: Klucel (hydroxypropylcellulose) (HPC)) was 111 % of control; the T/C (dose: 12.5 mg/kg/injection, schedule: Q01DX005 (ip), vehicle: Klucel (hydroxypropylcellulose) (HPC)) is 105 % of control and 113 % of control (2×); the T/C under setting [13] was 109 % of control and 113 % of control and 116 % of control.
With `C1CCOCCOCCOCCOCCOCCCCCC2(CC1)OCCO2`, the T/C under setting [4] was 96 % of control, the T/C under setting [5] was 94 % of control and the T/C under setting [6] is 96 % of control.
For `Cn1c(=O)c2nc(-c3ccc(Cl)cc3)oc2n(C)c1=O`, the T/C reads like this: (dose: 50.0 mg/kg/injection, schedule: Q01DX009 (ip), vehicle: saline) 104 % of control; (dose: 100.0 mg/kg/injection, schedule: Q01DX009 (ip), vehicle: saline) 100 % of control; (dose: 200.0 mg/kg/injection, schedule: Q01DX009 (ip), vehicle: saline) 102 % of control.
Turning to `CCC[CH2][Sn]1([CH2]CCC)[O]OC2(CCCCC2)[O]1`, the T/C by setting is: (dose: 1.25 mg/kg/injection, schedule: Q01DX009 (ip), vehicle: saline with Tween-80) 113 % of control; (dose: 2.5 mg/kg/injection, schedule: Q01DX009 (ip), vehicle: saline with Tween-80) 109 % of control.
With `Oc1cc2c3c(c1)-c1c(ccc(O)c1O)CC3NCC2` (stereo not drawn), the T/C is 99 % of control (dose: 3.13 mg/kg/injection, schedule: Q04DX003 (ip), vehicle: DMSO); 103 % of control (dose: 6.25 mg/kg/injection, schedule: Q04DX003 (ip), vehicle: DMSO); 109 % of control (dose: 12.5 mg/kg/injection, schedule: Q04DX003 (ip), vehicle: DMSO); 110 % of control (dose: 25.0 mg/kg/injection, schedule: Q04DX003 (ip), vehicle: DMSO); 117 % of control (dose: 50.0 mg/kg/injection, schedule: Q04DX003 (ip), vehicle: DMSO).
Consider `COc1cc(/C=C/C(=O)CC(=O)/C=C/c2ccc(O)c(OC)c2)ccc1O`, for which the T/C (dose: 6.25 mg/kg/injection, schedule: Q01DX009 (ip), vehicle: saline with Tween-80) is 103 % of control; the T/C (dose: 12.5 mg/kg/injection, schedule: Q01DX009 (ip), vehicle: saline with Tween-80) was 100 % of control; the T/C (dose: 25.0 mg/kg/injection, schedule: Q01DX009 (ip), vehicle: saline with Tween-80) is 100 % of control; the T/C (dose: 50.0 mg/kg/injection, schedule: Q01DX009 (ip), vehicle: saline with Tween-80) is 94 % of control.
For the molecule `CCOP(O)(=S)OCC.[Ti]`, the T/C was 96 % of control under setting [10], 101 % of control under setting [11] and 92 % of control under setting [12].
In the case of `C[Si](C)(C)C12CC3(CCCCC3)C1NC(=O)NC2=O` (stereo not drawn), the T/C reads like this: under setting [13], 108 % of control; under setting [7], 96 % of control; under setting [8], 90 % of control; under setting [9], 88 % of control.
For `CC1(C)CC(=O)NC(=O)N1`, the T/C reads like this: under setting [4], 99 % of control; under setting [5], 94 % of control; under setting [6], 104 % of control.
On to `COc1ccc(-c2cscc2N)cc1`, for which the T/C was 114 % of control under setting [1], 118 % of control under setting [2] and 97 % of control under setting [3].
